Results on 5 molecules are retold here after patent US7125847B1, “Mechanically activated channel blocker” (priority 2000, dated 2006).

Entries after “also recorded” stand apart in the source; their conditions may differ. Where no end group is shown, it is not given here.

What all share (assay type): cell-based
In assay [1] the test system is whole-cell swelling-activated currents in adult rat astrocytes. Nature of the assay: Whole-cell (Nystatin perforated patch) currents in adult rat astrocytes, isotonic and hypotonic swelling. Here is the method: It is considered that part of the swelling activated currents are attributable to SACs. To illustrate this embodiment, adult rat astrocytes were cultured as described above. Whole cell current was measured by the Nystatin perforated patch. Bath saline was the same as in Example 2. Pipette saline consisted of: KCl 80 mM, K2SO4 30 mM, NaCl 10 mM, MgSO4 3 mM, CaCl20.13 mM, EGTA 0.23 mM and Hepes 10 mM, pH 7.3. Nystatin was dissolved in pipette saline to a final concentration of […]. After patch formation, access resistance was allowed to drop to ˜15 MW (uncompensated), after which the series resistance compensation was set at ˜65%, and prediction was set to ˜75%. Whole cell capacitance measurements ranged from ˜25–50 pF. Whole cell currents were monitored by either a voltage step protocol shown in FIG. 7, or by 600 ms voltage ramps. During hypotonic swelling the cell was perfused initially with isotonic saline (bath saline with 160 mM mannitol replacing 80 mM NaCl) before switching to hypotonic saline (isotonic saline minus 140 mM mannitol). The BPS-8 perfusion system was used to rapidly (<200 ms) change the bathing solution. Peak currents were measured at 3–5 ms into voltage steps.

Assay [2] deals with MSC currents in normal rat kidney cells. Nature of the assay: Outside-out patch clamp of mechanosensitive channel currents in normal rat kidney cells. The following applies: 5 μM. As to the method:
NRK cell culture: Normal rat kidney cells (CCA identifier is 49F) at passages 20–25, were maintained in DMEM, 5% fetal bovine serum and 1%
Penicillin/Streptomycin. Cells were plated onto poly-L-lysine coated cover-slips, and used in experiments between 2 and 6 days after passage.
Electrophysiology: An Axopatch 200B (Axon Instruments, California) was used for patch clamping, while experimental protocols and data acquisition were controlled by Axon Instruments pClamp8 software via a Digidata 1322A acquisition system. Currents were sampled at 10 KHz and low-pass filtered at 2 KHz through the 4 pole Bessel filter on the Axopatch 200B. All potentials are defined with respect to the extracellular surface. Electrodes were pulled on a Model PC-84 pipette puller (Brown-Flaming Instruments, California), painted with Sylgard 184 (Dow Corning Corp. Midland Mich.) and fire polished. Electrodes were filled with KCl saline (KCl 140 mM, EGTA 5 mM, MgSO4 2 mM, Hepes 10 mM, pH 7.3) and had resistances ranging from 10–20 MΩ. Bath saline consisted of NaCl—140 mM, KCl—5 mM, CaCl2—2 mM, MgSO4—0.5 mM, glucose—6 mM and Hepes—10 mM, pH 7.3. Pressure and suction were applied to the pipette by a HSPC-1 pressure clamp (ALA Scientific Instruments, New York) controlled by the pClamp software. Perfusion of toxin samples was performed by a pressurized local perfusion system BPS-8 (ALA scientific instruments, NY) with 8 separate channels. Off-line data analysis was performed with Clampfit and Origin 6.1 software.
For orientation: In patch-clamp work, channel activity is measured electrically.

Assay [3] deals with stretch-activated channels (SACs). Nature of the assay: Outside-out patch clamp of stretch-activated channels in adult rat astrocytes. As to the method: This embodiment describes the effect of the peptide GsMTx-4 variant (SEQ ID NO:1) on SACs. To illustrate this, adult rat astrocytes which are known to have SACs, were used. Adult rat astrocytes were cultured according to standard methods. Briefly, activated adult astrocytes isolated from gelatin-sponge implants from adult Sprague-Dawley rat brains obtained according to the method of Langan et al. (1995, Glia, 14:174–184) were used at passage numbers 2–4. Astrocytes were maintained in DMEM, 10% fetal bovine serum and 1% Penicillin/Streptomycin and were used in experiments between 2 and 5 days after passage. Cells between passage 4 and 35 expressed SACs with the same properties Both stellate process bearing cells and flat polygonal (fibroblast-like) cells were used.
The cultured astrocytes were used for single channel and whole cell recorndings. For single channel patch clamp, patch voltage was controlled by an Axopatch 200B (Axon Instruments, Calif.) and currents were recorded directly onto computer disk via a Labmaster DMA Ver. B (Scientific Instruments, Calif.) board controlled by pClamp6-Clampex acquisition software (Axon Instruments, California). Currents were sampled at 10 KHz and low-pass filtered at 2 KHz through the 4 pole Bessel filter on the Axopatch 200B. Experimental voltage protocols were controlled by pClamp6-Clampex. All potentials are defined with respect to the extracellular surface.
Electrodes were pulled on a Model PC-84 pipette puller (Brown-Flaming Instruments, Calif.), painted with Sylgard 184 (Dow Corning Corp. Midland Mich.) and fire polished. Electrodes were filled with KCl saline (KCl 140 mM, EGTA 5 mM, MgSO4 2 mM, Hepes 10 mM, pH 7.3) and had resistances ranging from 3–8 MWBath saline consisted of NaCl 140 mM, KCl 5 mM, MgSO4 1 mM, CaCl2 1 mM, glucose 6 mM and Hepes 10 mM, pH 7.3.
Pressure and suction were applied to the pipette by a pressure clamp. Pressure values represent pressure in the pipette, i.e., the intracellular side of the membrane in outside-out patches. Suction applied to a cell-attached patch has the same sign as pressure applied to an outside-out patch. The rise time of pressure changes at the tip were determined by monitoring the rate of current change when pressure steps were applied to an electrode containing 150 mM KCl solution and placed in a water bath. The t10-90 was ˜5 ms as determined by exponential fits to the current decay. Perfusion of toxin samples was performed by a pressurized bath perfusion system BPS-8 (ALA scientific instruments, NY) with 8 separate channels.
Off-line data analysis was performed with pClamp6 analysis software and Origin 5.0. Maximal unitary channel currents were determined via Guassian fits to the peaks of all points amplitude histograms generated from records containing 1–3 channels. […] Some of these records were analyzed by determining all of the step-like changes in current during the pressure application and selecting the average maximal current level as the unitary current. The data analyzed by this method was in good agreement with the unitary current levels determined by analysis of all points amplitude histograms from single channel patches.
The outside out patches from adult astrocytes as described above were used for testing the HPLC fractions obtained in Example 1. The HPLC fractions were lyophilized, redissolved at a 1:1000 dilution and perfused onto outside out patches. […] The fraction containing the single peak in FIG. 1D was then tested for activity against SACs. […] The patch was held at −50 mV, and the pressure pulse is shown above the records.
The entire experiment is comprised of 60 pressure steps: steps 1–20 occur before GsMTx-4 application; steps 21–38 while GsMTx-4 is being perfused; steps 39–60 occur during washout. Each 500 ms pressure step was separated by 1.5 seconds at 0 pressure.
The association rate of the toxin was determined by applying GsMTx-4 to an outside-out patch while the channels were activated by stretch (FIG. 5). […]

On to `O=S(=O)(O)c1cc(N=C=S)ccc1C=Cc1ccc(N=C=S)cc1S(=O)(=O)O` [DIDS, reference compound], for which the “shift in reversal potential of swelling-activated current” value in assay [1] (50 μM DIDS, average n=6) is −33 mV. Besides, the “effect on swelling-activated current” value in assay [1] (50 μM DIDS, especially at depolarized potentials) is listed as “significant reduction in current”.
In the case of `[Cl-].[Cs+]` [CsCl, reference compound], the “effect on whole-cell current in isotonic saline” value in assay [1] (CsCl, hyperpolarized potentials) is on record as “significant decrease in current”.
As for “synthetic: chemically synthesized GsMTx4 with a C-terminal phenylalanine, folded with GSH/GSSG (GCLEFWWKCNPNDDKCCRPKLKCSKLFKLCNFSF-NH2; disulfide (positions not given here); not fully specified (bridges); also: three intramolecular disulfide bonds, pairing not given here)”, the “block of mechanosensitive channels” value in assay [2] is on record as “active in blocking SACs”; in assay [2] (listed as synthetic peptide), “blocked”.
Regarding “cloned: GsMTx4 liberated by thrombin from a thioredoxin fusion protein, with three extra amino acids at the N-terminus (SGMGCLEFWWKCNPNDDKCCRPKLKCSKLFKLCNFSF; ends and bridges not checked; cysteine pairing not given here)”, the “block of mechanosensitive channels” value in assay [2] was “blocked; also recorded: active in blocking SACs”. The “block of mechanically sensitive current” value in assay [2] (outside-out patches held at −50 mV) is reported as “greater than 75%”.
With “GCLEFWWKCNPNDDKCCRPKLKCSKLFKLCNFSSG (not fully specified (C-terminus); ends and bridges not checked; listed as Grammastola spatulata) [SEQ ID NO.1, 35 amino acids with C-term glycine amide]”, in assay [3], the “SAC blocking activity” value is “has SAC blocking activity”.
